Assay results as given in patent US20030032587A1, “Urocortin peptides” (The Salk Institute for Biological Studies, priority 1995, published 2003).
Where no end group is shown, it is not given here.

Columns and labels:
[1] = target: CRF receptors on anterior pituitary cells in culture; experiment: cell-based or functional assay
human CRF-R2β = experiment: competitive displacement binding assay, CRF-R2β stably expressed in CHO cells; conditions: read-out: Ki (95% confidence limits); CRF-R2β in stably transfected CHO cells; displacement of [125I-Tyr0]Ucn
Protocol: Binding assays with cells expressing human CRF-R1 are carried out as described in the Chen et al. P.N.A.S., supra. The affinities of test peptides for CRF-R1 and CRF-R2β stably expressed in CHO cells were determined by competitive displacement of ^125I-(Nle^21, Tyr^32) ovine CRF (for CRF-R1) or of [^125II-Tyr^∘]Ucn (for CRF-R2β) as described.

rats [2] = experiment: ACTH secretion in vivo, ACTH level in plasma
[3] = tested on: primary murine anterior pituitary cells; format: cell-based
Text: A straightforward assay using rat anterior pituitary cells in monolayer culture can be carried out to determine whether a candidate peptide thereof will function as a CRF agonist and stimulate ACTH secretion by activating CRF receptors on such cells. The procedure which is used is that generally set forth in Endocrinology, 91, supra. A very similar assay is used to test for antagonistic properties, using a challenge dose of oCRF or the like.
To test the ability of purified Ucn or another candidate Ucn-like peptide to function as a CRF agonist and to promote ACTH production and/or secretion, cultures of dispersed primary murine anterior pituitary cells (0.15×10^6 cells/well are used), as generally described in Vale et al. Meth. Enzym., 103, 565-577 (1983), and in Endocrinology, 91, 562 (1972). These cultures are maintained in 0.5 ml/well of β-PJ (a reagent available from Kansas City Biochemicals) containing 2% fetal bovine serum. On the morning of culture day 5, the cells are washed 3 times with β-PJ containing 0.1% bovine serum albumin and then incubated for 1 hour at 37° C. in the same medium. The medium is then replaced with Ucn, or an analog thereof, diluted in β-PJ containing 0.1% bovine serum albumin. Incubations are terminated after 3 hours, at which time the medium is removed and stored at −20° C. until ACTH radioimmunoassays are performed using a suitable kit, such as that commercially available from Diagnostic Products Corporation of Los Angeles, Calif. Secreted ACTH is measured using Allfit computer program with results expressed as the average±s.e.m. of 3 replicate bioassays.

rats [4] = experiment: fall in mean arterial blood pressure after peripheral (iv) administration; format: in vivo
[5] = target: T1, human CRF binding protein (hCRF-BP) (Homo sapiens, UniProt P24387); experiment: competitive hCRF-BP ligand binding assay; conditions: radioligand 125I[Nle21,Tyr32]-oCRF
T1 construct: made in house; host or cells: recombinant CHO cells, conditioned medium
T1 sequence (P24387 25-322): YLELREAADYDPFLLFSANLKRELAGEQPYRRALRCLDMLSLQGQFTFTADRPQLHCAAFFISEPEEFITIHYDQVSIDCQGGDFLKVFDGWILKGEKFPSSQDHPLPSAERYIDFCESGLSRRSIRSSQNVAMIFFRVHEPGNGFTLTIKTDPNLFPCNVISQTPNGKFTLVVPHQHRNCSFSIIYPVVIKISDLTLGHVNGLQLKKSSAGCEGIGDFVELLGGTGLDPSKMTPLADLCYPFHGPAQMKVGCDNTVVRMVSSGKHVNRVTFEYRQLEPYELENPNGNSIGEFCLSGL

murine CRF-R2β = target: T2, murine CRF-R2β (Mus musculus, UniProt Q60748); experiment: elevation of intracellular cAMP in cells expressing mCRF-R2β; format: cell-based; conditions: read-out: ED50, elevation of cAMP
T2 construct: expressed in transfected cells
T2 sequence (Q60748 1-431 isoform Q60748-2): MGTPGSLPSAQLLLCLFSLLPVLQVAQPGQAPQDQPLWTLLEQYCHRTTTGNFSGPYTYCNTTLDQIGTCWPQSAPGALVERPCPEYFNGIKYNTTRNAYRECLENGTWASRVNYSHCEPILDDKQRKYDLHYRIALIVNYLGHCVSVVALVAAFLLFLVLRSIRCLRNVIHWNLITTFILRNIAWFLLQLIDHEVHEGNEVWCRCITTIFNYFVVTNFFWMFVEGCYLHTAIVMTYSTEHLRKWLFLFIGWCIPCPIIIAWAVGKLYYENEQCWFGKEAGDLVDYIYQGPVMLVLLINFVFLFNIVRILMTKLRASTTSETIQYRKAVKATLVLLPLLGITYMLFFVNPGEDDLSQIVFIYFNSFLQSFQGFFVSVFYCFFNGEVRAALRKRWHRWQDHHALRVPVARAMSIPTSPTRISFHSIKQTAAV
Text: CRF-R is used to refer to a family of receptor protein subtypes which participate in the G-protein-coupled response of cells to CRF and Ucn-like ligands. CRF-Rs are coupled by heterotrimeric G-proteins to various intracellular enzymes, ion channels, and transporters. The G-proteins associate with the receptor proteins at the intracellular face of the plasma membrane. An agonist binding to a CRF-R catalyzes the exchanges of GTP for GDP on the α-subunit (G-protein “activation”), resulting in its dissociation and stimulation of one (or more) of the various signal-transducing enzymes and channels. G-protein preferentially stimulates particular effectors, and the specificity of signal transduction may be determined, therefore, by the specificity of G-protein/receptor interaction. CRF-R proteins mediate signal transduction through the modulation of adenylate cyclase and perhaps through PI turnover. For example, when CRF or Ucn binds to and activates the CRF-R, adenylate cyclase causes an elevation in the level of intracellular cAMP. […] Such transformed cells are monitored for either an increase or decrease in the level of intracellular CAMP which provides a determination of the effectiveness of the potential agonist or antagonist. Methods for measuring intracellular levels of cAMP, or measuring cyclase activity, are well known in the art.

[6] = target: T3, human CRF binding protein (human, UniProt P24387 25-322); experiment: competitive hCRF-BP ligand binding assay with [125I-DTyr0]hCRF; reference peptide
T3 construct: also called hCRF-BP; CRF-BP
T3 sequence (looked up): T1 sequence (P24387 25-322)
Protocol: After incubating with the primary and secondary antisera for 30 minutes each, 1 ml of saline wash is added, and the test tubes are centrifuged at 2000× g for 20 minutes at 4° C. Precipitates are counted in a gamma counter. Inhibitory binding affinity constant (Kᵢ) values are determined using parameters calculated by the LIGAND computer program, Munson et al., Anal. Biochem., 107, 220 (1980), and a Vax/VMS computer system.

[7] = target: human CRF-R2β, stably transfected CHO cells (human) (UniProt Q13324); experiment: competitive displacement of [125I-Tyr0]Ucn from stably transfected CHO cells expressing human CRF-R2β; 95% confidence limits in brackets
[8] = target: T4, human CRF-R1 (cloned hCRF-R1), stably expressed in CHO cells (human, UniProt P34998 24-415); experiment: competitive displacement of 125I-(Nle21,Tyr32) ovine CRF from CHO cells stably expressing hCRF-R1; LIGAND program, 95% confidence limits in brackets
T4 construct: whole, on cells; also called hCRF-RA
T4 sequence (looked up): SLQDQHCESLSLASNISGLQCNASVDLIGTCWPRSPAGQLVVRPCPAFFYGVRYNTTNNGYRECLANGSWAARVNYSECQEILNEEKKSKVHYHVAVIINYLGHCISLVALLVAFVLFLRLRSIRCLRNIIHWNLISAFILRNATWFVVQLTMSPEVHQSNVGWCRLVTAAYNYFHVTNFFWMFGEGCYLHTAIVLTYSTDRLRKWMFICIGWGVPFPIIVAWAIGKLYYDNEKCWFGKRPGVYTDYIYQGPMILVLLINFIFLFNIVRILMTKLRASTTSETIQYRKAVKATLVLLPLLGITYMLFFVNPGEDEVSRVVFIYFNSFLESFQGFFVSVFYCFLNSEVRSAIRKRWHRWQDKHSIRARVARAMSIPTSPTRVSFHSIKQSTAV
Protocol: Binding assays with cells expressing human CRF-R1 are carried out as described in the Chen et al. P.N.A.S., supra.

[9] = target: T3, human CRF binding protein; experiment: competitive hCRF-BP ligand binding assay with 125I[Nle21,Tyr32]-oCRF

[Tyr0]rUcn(1-40) (peptide)
ACTH secretion, anterior pituitary cell cultures, potency relative to r/hCRF [1]: 2.2 times r/hCRF

CC[C@H](C)[C@H](NC(=O)[C@H](CO)NC(=O)[C@H](CC(C)C)NC(=O)[C@@H]1CCCN1C(=O)[C@@H]1CCCN1C(=O)[C@H](CC(=O)O)NC(=O)[C@@H](N)CC(=O)O)C(=O)N[C@@H](CC(=O)O)C(=O)N[C@@H](CC(C)C)C(=O)N[C@H](C(=O)N[C@@H](Cc1ccccc1)C(=O)N[C@@H](Cc1c[nH]cn1)C(=O)N[C@@H](CC(C)C)C(=O)N[C@@H](CC(C)C)C(=O)N[C@@H](CCCNC(=N)N)C(=O)N[C@H](C(=O)N[C@@H](CC(C)C)C(=O)N[C@@H](CC(C)C)C(=O)N[C@@H](CCC(=O)O)C(=O)N[C@@H](CC(C)C)C(=O)N[C@@H](C)C(=O)N[C@@H](CCCNC(=N)N)C(=O)N[C@H](C(=O)N[C@@H](CCC(N)=O)C(=O)N[C@@H](CO)C(=O)N[C@@H](CCC(N)=O)C(=O)N[C@@H](CCCNC(=N)N)C(=O)N[C@@H](CCC(=O)O)C(=O)N[C@@H](CCCNC(=N)N)C(=O)N[C@@H](C)C(=O)N[C@@H](CCC(=O)O)C(=O)N[C@@H](CCC(N)=O)C(=O)N[C@@H](CC(N)=O)C(=O)N[C@@H](CCCNC(=N)N)C(=O)N[C@H](C(=O)N[C@H](C(=O)N[C@@H](Cc1ccccc1)C(=O)N[C@@H](CC(=O)O)C(=O)N[C@@H](CO)C(=O)N[C@H](C(N)=O)C(C)C)[C@@H](C)CC)[C@@H](C)CC)[C@@H](C)O)[C@@H](C)O)[C@@H](C)O [rUcn]
Ki (human CRF-R2β): 0.41 nM
ACTH level in plasma (rats [2]; 1 μg/kg dose, at 30 minutes): 659 ± 53 pg/mL
ACTH level in plasma, effect compared with r/hCRF (rats [2]; at 1 hour and at 2 hours): greater effect continues
biopotency for ACTH secretion compared with oCRF ([3]; cultured rodent pituitary cells): more potent than oCRF
stimulates the secretion of ACTH and β-END-LI (β-endorphin) ([3]; result in words): strongly stimulates
fall in mean arterial blood pressure (rats [4]; administered peripherally, e.g. iv, dose as low as 250 ng for a rat of about 250 to 275 grams): marked fall
lowers blood pressure, times as much as either sfUI or r/hCRF (rats [4]; dose of about 3.77 μg/kg): 2-3 times
binding to hCRF-BP compared with sauvagine and sfUI [5]: much more strongly than does sauvagine, but less strongly than sfUI
binds hCRF-BP more strongly than r/hCRF, factor [5]: about 2
EC50 (murine CRF-R2β): 0.18 ± 0.04 nM

DLTFHLLREVLEMARAEQLAQQAHS [hCRF(9-33)]
binding result [6]: binds

NDDPPISIDLTFHLLRNMIEMARIENEREQAGLNRKYLDEV-NH2 (also called sfUI; suckerfishUI) [suckerfish urotensin I]
Ki [7]: 3 nM
Ki [8]: ~0.43 nM
binding result [9]: binds
